Measured values as given in ChEMBL document CHEMBL1201862, “PubChem BioAssay data set” (2004).
Values joined by “and” are separate entries in the source; they are usually repeats but may differ in a detail not shown here. Equal values may be shown once.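 Cells were grown in 96-well plates and exposed to each compound for 48 hours at five concentrations; endpoints were interpolated linearly between bracketing concentrations, or set to the highest concentration if not reached. Here, GI50 denotes the concentration required for 50% inhibition of growth.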 Active and inactive are the calls of the source. No stated cut-off is given here; in the data, active = GI50 up to about 1.1 µM and inactive = higher.

Columns and labels:
Test in all cases: growth of human tumour cells (NCI), 48 h
MCF7 = system: MCF7
HOP-62 = system: HOP-62
SNB-75 = system: SNB-75
CAKI-1 = system: CAKI-1
NCI-H23 = system: NCI-H23
OVCAR-8 = system: OVCAR-8
COLO 205 = system: COLO 205
Malme-3M = system: Malme-3M
MDA-N = system: MDA-N
SNB-19 = system: SNB-19
HCT-116 = system: HCT-116
A549 = system: A549
SN12C = system: SN12C
HT-29 = system: HT-29
HOP-92 = system: HOP-92
SF-268 = system: SF-268
M14 = system: M14
NCI-H460 = system: NCI-H460
HCC 2998 = system: HCC 2998
KM12 = system: KM12

SMILES	GI50 (MCF7)	GI50 (HOP-62)	GI50 (SNB-75)	GI50 (CAKI-1)	GI50 (NCI-H23)	GI50 (OVCAR-8)	GI50 (COLO 205)	GI50 (Malme-3M)	GI50 (MDA-N)	GI50 (SNB-19)	GI50 (HCT-116)	GI50 (A549)	GI50 (SN12C)	GI50 (HT-29)	GI50 (HOP-92)	GI50 (SF-268)	GI50 (M14)	GI50 (NCI-H460)	GI50 (HCC 2998)	GI50 (KM12)
CCC(=O)N(c1ccccc1)C(C)CN1CCC(O)(c2ccccc2)CC1 (stereo not given)	> 100 µM (inactive)	> 100 µM (inactive)	> 100 µM (inactive)	> 100 µM (inactive)	> 100 µM (inactive)	> 100 µM (inactive)	> 100 µM (inactive)	> 100 µM (inactive)	> 100 µM (inactive)	> 100 µM (inactive)	80.9 µM (inactive)	> 100 µM (inactive)	> 100 µM (inactive)	58.3 µM (inactive)	> 100 µM (inactive)	> 100 µM (inactive)	> 100 µM (inactive)			
O=C(Cc1ccccc1)NN1C(=O)/C(=C\c2cccc(O)c2)S/C1=N\c1ccccc1	> 100 µM (inactive)	> 100 µM (inactive)	> 100 µM (inactive)		> 100 µM (inactive)	> 100 µM (inactive)	> 100 µM (inactive)		> 100 µM (inactive)	> 100 µM (inactive)	> 100 µM (inactive)	> 100 µM (inactive)	> 100 µM (inactive)	> 100 µM (inactive)		> 100 µM (inactive)	> 100 µM (inactive)	> 100 µM (inactive)	> 100 µM (inactive)	> 100 µM (inactive)
Cc1ccc(NC(=O)/C(CC2Nc3c(ccc4c3C(=O)c3ccccc3C4=O)NC2O)=N/NC(C)(C)C)cc1 (stereo not given)	23.7 µM (inactive)	13.8 µM (inactive)	25.8 µM (inactive)	8.3 µM (inactive)	17.7 µM (inactive)	6.52 µM (inactive)	21.5 µM (inactive)		14.1 µM (inactive)	28 µM (inactive)	12.5 µM (inactive)	16.1 µM (inactive)	12.6 µM (inactive)	16.4 µM (inactive)	16.8 µM (inactive)	10.4 µM (inactive)	18.7 µM (inactive)	9.57 µM (inactive)	22.6 µM (inactive)	8.85 µM (inactive)
Cc1cn(C(CO)OC(CO)CN(O)C2C3CC4CC(C3)CC2C4)c(=O)[nH]c1=O (stereo not given)	> 100 µM (inactive)	> 100 µM (inactive)	> 100 µM (inactive)	> 100 µM (inactive)	> 100 µM (inactive)	> 100 µM (inactive)	> 100 µM (inactive)		> 100 µM (inactive)	> 100 µM (inactive)	> 100 µM (inactive)	> 100 µM (inactive)	> 100 µM (inactive)	> 100 µM (inactive)	> 100 µM (inactive)	> 100 µM (inactive)	> 100 µM (inactive)	> 100 µM (inactive)	> 100 µM (inactive)	> 100 µM (inactive)
[O-][N+]1=[N+]([O-])[C@@H](c2ccccc2)[C@H]1c1ccccc1	15.7 µM (inactive)	18.7 µM (inactive)	21.3 µM (inactive)	5.83 µM (inactive)	16.5 µM (inactive)	16.8 µM (inactive)	19.3 µM (inactive)	17.7 µM (inactive)	16.6 µM (inactive)	18.4 µM (inactive)	16.6 µM (inactive)	19.5 µM (inactive)	18 µM (inactive)	18.3 µM (inactive)	15.6 µM (inactive)	24.9 µM (inactive)	15.8 µM (inactive)	22.4 µM (inactive)		22.4 µM (inactive)
CCCN(CCC)CCc1ccc(OC2=CCN(C)CC2)cc1	> 100 µM (inactive)	> 100 µM (inactive)		> 100 µM (inactive)	> 100 µM (inactive)	36.9 µM (inactive)	50.6 µM (inactive)	13.8 µM (inactive)	36.6 µM (inactive)	> 100 µM (inactive)	39.8 µM (inactive)	> 100 µM (inactive)	> 100 µM (inactive)	16 µM (inactive)		86.1 µM (inactive)	15.7 µM (inactive)		> 100 µM (inactive)	30.4 µM (inactive)
Cc1ccc(C(=O)CCC2C(=O)CC(C)(C)CC2=O)cc1	53 µM (inactive)	> 100 µM (inactive)	> 100 µM (inactive)	17.5 µM (inactive)	> 100 µM (inactive)	> 100 µM (inactive)	> 100 µM (inactive)		> 100 µM (inactive)	> 100 µM (inactive)	> 100 µM (inactive)	> 100 µM (inactive)	> 100 µM (inactive)	> 100 µM (inactive)	44.9 µM (inactive)	> 100 µM (inactive)	> 100 µM (inactive)	> 100 µM (inactive)	> 100 µM (inactive)	> 100 µM (inactive)
O=C(/C=C/c1ccccc1)c1ccccn1	16 µM (inactive)		24.5 µM (inactive) and 16 µM (inactive)	26.2 µM (inactive) and 16.6 µM (inactive)	17.9 µM (inactive) and 17.5 µM (inactive)	17.6 µM (inactive) and 25.1 µM (inactive)	18.6 µM (inactive) and 22.2 µM (inactive)		16.9 µM (inactive) and 27.2 µM (inactive)			19.4 µM (inactive) and 32.6 µM (inactive)	14.3 µM (inactive) and 17.2 µM (inactive)	20.7 µM (inactive) and 15.5 µM (inactive)	19.1 µM (inactive)		14.5 µM (inactive)	16.7 µM (inactive) and 21.3 µM (inactive)	13.8 µM (inactive) and 19.3 µM (inactive)	19.1 µM (inactive) and 14.4 µM (inactive)
CCCCCCCCCCCCCCCC1(OC)C[N+](C)(C)CCO1 (stereo not given)	0.221 µM (active)	1.61 µM (inactive)	0.0556 µM (active)	1.4 µM (inactive)	1.3 µM (inactive)	1.83 µM (inactive)	1.31 µM (inactive)	2.18 µM (inactive)	2.05 µM (inactive)	1.6 µM (inactive)	1.63 µM (inactive)	1.7 µM (inactive)	1.66 µM (inactive)	1.22 µM (inactive)		2.08 µM (inactive)	1.65 µM (inactive)	2.09 µM (inactive)	2.54 µM (inactive)	0.586 µM (active)
C=CCC1(O)c2cccc(O)c2C(=O)c2cccc(O)c21 (stereo not given)	19.6 µM (inactive)	21.4 µM (inactive)	13.2 µM (inactive)	21.7 µM (inactive)	8.09 µM (inactive)	25.8 µM (inactive)			8.22 µM (inactive)		14.4 µM (inactive)	15.8 µM (inactive)		22.1 µM (inactive)	17.5 µM (inactive)	23.3 µM (inactive)	16.2 µM (inactive)	13.9 µM (inactive)	11 µM (inactive)	17.3 µM (inactive)
O=C1Nc2ccccc2/C1=N/Nc1nc(-c2cccc([N+](=O)[O-])c2)cs1	23.9 µM (inactive)	24.1 µM (inactive)	20.3 µM (inactive)	19.2 µM (inactive)	36.4 µM (inactive)	15.9 µM (inactive)	27.1 µM (inactive)		31.1 µM (inactive)	26.7 µM (inactive)	19.2 µM (inactive)	20.1 µM (inactive)	20.8 µM (inactive)	17.7 µM (inactive)	20.1 µM (inactive)	19.7 µM (inactive)	34.1 µM (inactive)	16.9 µM (inactive)	18.1 µM (inactive)	26.3 µM (inactive)
O=C1c2ccccc2-c2c1c(-c1ccccc1)c1n2C2(C(=O)c3ccccc3C2=O)C2C(=O)N(c3ccccc3)C(=O)C12 (stereo not given)	24.8 µM (inactive)	26.3 µM (inactive)	17.3 µM (inactive)	34.4 µM (inactive)	17.4 µM (inactive)	32.2 µM (inactive)	18.5 µM (inactive)	23.9 µM (inactive)	24.7 µM (inactive)	27.7 µM (inactive)	17.9 µM (inactive)	85.1 µM (inactive)	19.9 µM (inactive)	17.7 µM (inactive)	23.8 µM (inactive)	21.1 µM (inactive)	34.1 µM (inactive)	12 µM (inactive)		19.8 µM (inactive)
Cc1cc2[nH]c3c(C#N)c(-c4ccccc4)c(/C=N/c4ccc(Cl)cc4)c(=O)n3c2cc1C	> 100 µM (inactive)	> 100 µM (inactive)	> 100 µM (inactive)	> 100 µM (inactive)	> 100 µM (inactive)	> 100 µM (inactive)	> 100 µM (inactive)	> 100 µM (inactive)	> 100 µM (inactive)	> 100 µM (inactive)	> 100 µM (inactive)	> 100 µM (inactive)	> 100 µM (inactive)			> 100 µM (inactive)	> 100 µM (inactive)	> 100 µM (inactive)	> 100 µM (inactive)	> 100 µM (inactive)
NC(=O)/C=c1/c2ccccc2n2nc3ccccc3c12	26.9 µM (inactive)	26.1 µM (inactive)		20.1 µM (inactive)	22.1 µM (inactive)	8.71 µM (inactive)	20.4 µM (inactive)	21.9 µM (inactive)	15.6 µM (inactive)	20.1 µM (inactive)	4.82 µM (inactive)	31.7 µM (inactive)	19.1 µM (inactive)	15.9 µM (inactive)		10.2 µM (inactive)	27.5 µM (inactive)	25.8 µM (inactive)	17 µM (inactive)	14.3 µM (inactive)
O=C(/C=C1/Nc2ccc([N+](=O)[O-])cc2N/C1=C/C(=O)c1ccc(Cl)cc1)c1ccccc1	> 100 µM (inactive)	20.8 µM (inactive)	19.9 µM (inactive)	> 100 µM (inactive)	20.3 µM (inactive)	72.4 µM (inactive)	> 100 µM (inactive)	> 100 µM (inactive)	> 100 µM (inactive)	37 µM (inactive)	56.9 µM (inactive)	> 100 µM (inactive)	> 100 µM (inactive)	> 100 µM (inactive)		30.4 µM (inactive)	> 100 µM (inactive)	32 µM (inactive)	> 100 µM (inactive)	> 100 µM (inactive)
